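These data come from cells grown in 96-well plates and exposed to compound for 48 hours at five concentrations. Abbreviation: GI50, concentration required for 50% inhibition of growth.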 Calls of active or inactive are those of the source. No stated cut-off is given here; in the data, active = GI50 up to about 1.1 µM and inactive = higher.
How the values were obtained:
Assay in all cases: growth of human tumour cells (NCI), 48 h
[1] = system: 786-0
[2] = system: A549
[3] = system: ACHN
[4] = system: BT-549
[5] = system: CAKI-1
[6] = system: CCRF-CEM
[7] = system: COLO 205
[8] = system: DU-145
[9] = system: EKVX
[10] = system: HCC 2998
[11] = system: HCT-116
[12] = system: HCT-15
[13] = system: HL-60
[14] = system: HOP-92
[15] = system: HT-29
[16] = system: Hs-578T
[17] = system: K562
[18] = system: KM12
[19] = system: M14
[20] = system: MCF7
[21] = system: MDA-MB-231
[22] = system: MDA-MB-435
[23] = system: MDA-N
[24] = system: MOLT-4
[25] = system: Malme-3M
[26] = system: NCI-H226
[27] = system: NCI-H23
[28] = system: NCI-H460
[29] = system: NCI-H522
[30] = system: NCI/ADR-RES
[31] = system: OVCAR-3
[32] = system: OVCAR-4
[33] = system: OVCAR-5
[34] = system: OVCAR-8
[35] = system: PC-3
[36] = system: RXF 393
[37] = system: SF-268
[38] = system: SF-295
[39] = system: SF-539
[40] = system: SK-MEL-28
[41] = system: SK-MEL-2
[42] = system: SK-MEL-5
[43] = system: SK-OV-3
[44] = system: SN12C
[45] = system: SNB-19
[46] = system: SNB-75
[47] = system: SR
[48] = system: SW-620
[49] = system: T47D
[50] = system: TK-10
[51] = system: U-251
[52] = system: UACC-257
[53] = system: UACC-62
[54] = system: UO-31
[55] = system: HOP-62
[56] = system: IGROV-1
[57] = system: LOX IMVI
[58] = system: RPMI-8226

Measured: GI50

CCOc1ccc2nc(NC(NC(=O)c3cccnc3)(C(F)(F)F)C(F)(F)F)sc2c1
26 µM: [12]
inactive: [1] 26.5 µM | [2] 31.4 µM | [3] 29.3 µM | [4] 30.2 µM | [5] 38.3 µM | [6] 17.1 µM | [7] 34.1 µM | [8] 35.7 µM | [9] 22.6 µM | [10] 22.4 µM | [11] 25.4 µM | [13] 32.4 µM | [14] 20.5 µM | [15] 14.1 µM | [16] > 100 µM | [17] 38.4 µM | [18] 29.3 µM | [19] 34.1 µM | [20] 25.5 µM | [21] 66.1 µM | [22] 22.2 µM | [23] 15.6 µM | [24] 20.4 µM | [25] 51.1 µM | [26] 44 µM | [27] 22.8 µM | [28] 28.6 µM | [29] 23.4 µM | [30] 25.8 µM | [31] 32.6 µM | [32] 24 µM | [33] 25.6 µM | [34] 26.7 µM | [35] 31.7 µM | [36] 21 µM | [37] 56.8 µM | [38] 42 µM | [39] 49.2 µM | [40] 35.2 µM | [41] 38.5 µM | [42] 20.5 µM | [43] 93.8 µM | [44] 25.2 µM | [45] 51.9 µM | [46] 23.3 µM | [47] 24.9 µM | [48] 46.1 µM | [49] 21 µM | [50] 33.9 µM | [51] 42.5 µM | [52] 25.5 µM | [53] 25.6 µM | [54] 6.84 µM

Clc1nc(Cl)c(Cc2ccccc2)c(Cl)n1
inactive: [1] 2.36 µM | [2] 12.5 µM | [3] 15.7 µM | [4] 3.37 µM | [6] 3.27 µM | [7] 6.46 µM | [8] 14.8 µM | [9] 19 µM | [10] 13.7 µM | [11] 1.91 µM | [13] 7.45 µM | [55] 6.17 µM | [15] 3.94 µM | [16] 2.66 µM | [56] 5.97 µM | [17] 3.08 µM | [18] 7.87 µM | [57] 3.03 µM | [19] 2.82 µM | [20] 5.12 µM | [21] 3.75 µM | [22] 4.32 µM | [23] 3.59 µM | [24] 2.98 µM | [25] 5.35 µM | [26] 13.3 µM | [27] 8.32 µM | [28] > 10 µM | [29] 1.19 µM | [30] 4.8 µM | [31] 2.43 µM | [32] 3.67 µM | [33] 21.8 µM | [34] 4.34 µM | [35] 3.7 µM | [58] 5.32 µM | [36] 4.21 µM | [37] 18.6 µM | [38] 14.4 µM | [39] 5.3 µM | [40] 10.5 µM | [41] 7.45 µM | [42] 2.37 µM | [43] 11.5 µM | [44] 4.39 µM | [45] 17.9 µM | [46] 5.52 µM | [47] 4.26 µM | [48] 3.09 µM | [49] 9.12 µM | [50] 18.3 µM | [51] 11.7 µM | [52] > 10 µM | [53] 3.69 µM | [54] 18.2 µM
4.55 µM: [12]

O=c1cnn(C2OC(C(O)CO)C(O)C2O)c(=O)[nH]1 (configuration not stated)
inactive: [1] > 100 µM | [2] > 100 µM | [3] > 100 µM | [4] > 100 µM | [5] > 100 µM | [6] > 100 µM | [7] > 100 µM | [8] > 100 µM | [9] > 100 µM | [10] > 100 µM | [11] > 100 µM | [13] > 100 µM | [55] > 100 µM | [14] > 100 µM | [15] > 100 µM | [16] > 100 µM | [56] > 100 µM | [17] > 100 µM | [18] > 100 µM | [57] > 100 µM | [19] > 100 µM | [20] > 100 µM | [21] > 100 µM | [22] > 100 µM | [23] > 100 µM | [24] > 100 µM | [25] > 100 µM | [26] > 100 µM | [27] > 100 µM | [28] > 100 µM | [29] > 100 µM | [30] > 100 µM | [31] > 100 µM | [32] > 100 µM | [33] > 100 µM | [34] > 100 µM | [35] > 100 µM | [58] > 100 µM | [36] > 100 µM | [37] > 100 µM | [39] > 100 µM | [40] > 100 µM | [41] > 100 µM | [42] > 100 µM | [43] > 100 µM | [44] > 100 µM | [45] > 100 µM | [46] > 100 µM | [47] > 100 µM | [48] > 100 µM | [49] > 100 µM | [50] > 100 µM | [51] > 100 µM | [52] > 100 µM | [53] > 100 µM | [54] > 100 µM
> 100 µM: [12]

— ChEMBL document CHEMBL1201862, “PubChem BioAssay data set” (2004)
